According to US20230331715A1, “SPIRO[3.3]HEPTANE DERIVATIVES FOR THE TREATMENT AND PROPHYLAXIS OF HEPATITIS B VIRUS INFECTION” (priority 2020, published 2023):
Where two headings read alike, the source gives them in different places.

Assays:
Format in all cases: cell-based
HBsAg = assay: PHH HBV natural infection assay, HBsAg (alphalisa)
Procedure: (§1) Detailed procedures regarding primary human hepatocyte (PHH) HBV natural infection assay are described as below. One tube of frozen PHH (10 million cells) is thawed in 37° C. water bath and then transferred to 20 mL of PHH thawing medium (Sigma, InVitroGRO HT Medium, Cat. S03319) with gently mixing. The cells were then centrifuged at […] for 5 min, the supernatant was discarded and the tube was refilled with 25 mL of PHH plating medium (Sigma, InVitroGRO CP Medium, Cat. S03317). The tube was shaken very gently to re-suspend all cells, and then 50 µl of cells were transferred to each well 384-well collagen I coated plate with appropriate liquid handling equipment, e.g. Integra VIAFLO384 or Agilent Bravo. The cells were then cultured for 24 hours in a cell incubator. For HBV infection, after PHH attachment on the culture plate, the plating medium was removed and replenished with PHH culture medium containing HBV virus. The PHH culture medium was prepared with Dulbecco’s Modified Eagle Medium (DMEM)/F12 (1: 1 in volume ratio) containing 10% fetal bovine serum (Gibco, Cat. 10099141), 5 ng/mL human epidermal growth factor (Gibco, Cat.PHG0311L), 20 ng/mL dexamethasone (Sigma, Cat.D4902-100mg), 250 ng/mL human recombinant insulin (Gibco, Cat.41400045) and 100 U/mL penicillin. HBV virus at 200 genome equivalent (GE) per cell with 4% PEG8000 (Sigma, Cat.P1458) containing culture medium were added to the PHH culture medium for infection. The cells were then cultured for 24 hours in cell incubator. Then the cell culture supernatant was removed. The HBV-infected PHH were cultured with sandwich culture method with PHH culture medium containing 1% DMSO and 0.25 mg/mL matrix gel for 72 hours. The supernatant was then refreshed with PHH culture medium containing different concentrations of testing compounds for two times with 72-hour interval. At the end of treatment, the supernatant was collected for viral markers measurements, including HBsAg, HBeAg, HBV DNA and cytotoxicity. HBsAg and HBeAg were detected using alphalisa method using their specific antibodies. For HBV DNA detection, HBV DNA Quantitative Fluorescence Diagnostic Kit (Sansure Biotech Inc.) was used following the manufacture’s protocol. Cytotoxicity was determined using Cell Counting Kit-8 (CCK8, Dojindo Molecular Technologies, Inc.).
(§2) The compounds of the present invention were tested for their capacity to inhibit HBsAg and HBeAg as described herein.

HBeAg = assay: PHH HBV natural infection assay, HBeAg (alphalisa)
Procedure: as §1, §2

[1] = Cytotoxicity in PHH natural infection assay (Cell Counting Kit-8); details: human; HBV-infected PHH, CCK8, compound refreshed two times with 72-hour interval
Procedure: as §1

[2] = Hepatitis B virus, 72 h, read-out: HBsAg IC50, HBV-infected PHH, culture supernatant, compound refreshed two times with 72-hour interval, alphalisa
[3] = Hepatitis B virus, 72 h, read-out: HBeAg IC50, HBV-infected PHH, culture supernatant, compound refreshed two times with 72-hour interval, alphalisa
[4] = read-out: HBsAg IC50, HBV-infected PHH, culture supernatant, compound refreshed two times with 72-hour interval, alphalisa
[5] = read-out: HBeAg IC50, HBV-infected PHH, culture supernatant, compound refreshed two times with 72-hour interval, alphalisa

Row | Structure (SMILES) | IC50 (HBsAg; [2]) | IC50 (HBeAg; [3]) | CC50 at 144 h [1] | IC50 (HBsAg; [4]) | IC50 (HBeAg; [5])
1 | O=C(NC1CC2(C1)CC(c1nc3ccc(Cl)cc3s1)C2)c1ccnc(S(=O)(=O)C2CC2)c1 (stereo not drawn) [Example 37, N-[6-(6-chloro-1,3-benzothiazol-2-yl)spiro[3.3]heptan-2-yl]-2-cyclopropylsulfonyl-pyridine-4-carboxamide] | 0.23 µM | 0.2 µM | 10.1 µM | – | –
2 | CC(C)(C)S(=O)(=O)c1cc(C(=O)NC2CC3(C2)CC(c2nc4cc(Cl)ccc4s2)C3)ccn1 (stereo not drawn) [Example 38, 2-tert-butylsulfonyl-N-[6-(5-chloro-1,3-benzothiazol-2-yl)spiro[3.3]heptan-2-yl]pyridine-4-carboxamide] | 1.95 µM | 1.49 µM | 30.8 µM | – | –
3 | Cc1cc(C(=O)NC2CC3(C2)CC(c2nc4cc(Cl)ccc4s2)C3)ccn1 (stereo not drawn) [Example 6, N-[6-(5-chloro-1,3-benzothiazol-2-yl)spiro[3.3]heptan-2-yl]-2-methyl-pyridine-4-carboxamide] | 3.63 µM | 3.3 µM | > 10 µM | – | –
4 | [H][C@]1(NC(=O)c2ccnc(S(C)(=O)=O)c2)C[C@]2(C1)C[C@]([H])(c1nc3cc(Cl)ccc3s1)C2 (single isomer, unassigned) [Example 54-b, (Ra)-N-[6-(5-chloro-1,3-benzothiazol-2-yl)spiro[3.3]heptan-2-yl]-2-methylsulfonyl-pyridine-4-carboxamide] | – | – | 15.3 µM | 0.28 µM | 0.23 µM
5 | O=C(NC1CC2(C1)CC(c1nc3cc(Cl)ccc3s1)C2)c1ccc(S(=O)(=O)N2CCC2)o1 (stereo not drawn) [Example 20, 5-(azetidin-1-ylsulfonyl)-N-[6-(5-chloro-1,3-benzothiazol-2-yl)spiro[3.3]heptan-2-yl]furan-2-carboxamide] | 4.88 µM | 4.06 µM | > 10 µM | – | –
6 | O=C(NC1CC2(C1)CC(c1nc3cc(Cl)ccc3s1)C2)c1ccc(C(F)(F)F)o1 (stereo not drawn) [Example 14, N-[6-(5-chloro-1,3-benzothiazol-2-yl)spiro[3.3]heptan-2-yl]-5-(trifluoromethyl)furan-2-carboxamide] | 2.48 µM | 2.52 µM | > 100 µM | – | –
7 | [H][C@]1(NC(=O)c2ccnc(C(N)=O)c2)C[C@@]2(C1)C[C@]([H])(c1nc3cc(Cl)ccc3s1)C2 (single isomer, unassigned) [Example 53-a, (Sa)-N4-[6-(5-chloro-1,3-benzothiazol-2-yl)spiro[3.3]heptan-2-yl]pyridine-2,4-dicarboxamide] | – | – | 36.8 µM | 0.29 µM | 0.24 µM
8 | CC(C)Oc1cc(C(=O)NC2CC3(C2)CC(c2nc4cc(Cl)ccc4s2)C3)ccn1 (stereo not drawn) [Example 43, N-[6-(5-chloro-1,3-benzothiazol-2-yl)spiro[3.3]heptan-2-yl]-2-isopropoxy-pyridine-4-carboxamide] | 3.23 µM | 2.86 µM | > 10 µM | – | –
9 | CNc1cc(C(=O)NC2CC3(C2)CC(c2nc4cc(Cl)ccc4s2)C3)ccn1 (stereo not drawn) [Example 44, N-[6-(5-chloro-1,3-benzothiazol-2-yl)spiro[3.3]heptan-2-yl]-2-(methylamino)pyridine-4-carboxamide] | 3.24 µM | 3.18 µM | > 10 µM | – | –
10 | O=C(NC1CC2(C1)CC(c1nc3cc(Cl)ccc3s1)C2)c1ccc(S(=O)(=O)C2CC2)o1 (stereo not drawn) [Example 13, N-[6-(5-chloro-1,3-benzothiazol-2-yl)spiro[3.3]heptan-2-yl]-5-cyclopropylsulfonyl-furan-2-carboxamide] | 0.48 µM | 0.36 µM | 94.9 µM | – | –
11 | O=C(NC1CC2(C1)CC(c1nc3cc(Cl)ccc3s1)C2)c1ccc(S(=O)(=O)N2CC(F)(F)C2)o1 (stereo not drawn) [Example 21, N-[6-(5-chloro-1,3-benzothiazol-2-yl)spiro[3.3]heptan-2-yl]-5-(3,3-difluoroazetidin-1-yl)sulfonyl-furan-2-carboxamide] | 1.49 µM | 1.14 µM | > 10 µM | – | –
12 | [H][C@]1(NC(=O)c2ccnc(S(=O)(=O)C3CC3)c2)C[C@]2(C1)C[C@]([H])(c1nc3cc(Cl)ccc3s1)C2 (single isomer, unassigned) [Example 55-b, (Ra)-N-[6-(5-chloro-1,3-benzothiazol-2-yl)spiro[3.3]heptan-2-yl]-2-cyclopropylsulfonyl-pyridine-4-carboxamide] | – | – | 11.6 µM | 0.54 µM | 0.4 µM
13 | CCN(CC)c1cc(C(=O)NC2CC3(C2)CC(c2nc4cc(Cl)ccc4s2)C3)ccn1 (stereo not drawn) [Example 48, N-[6-(5-chloro-1,3-benzothiazol-2-yl)spiro[3.3]heptan-2-yl]-2-(diethylamino)pyridine-4-carboxamide] | 5.92 µM | 4.96 µM | > 10 µM | – | –
14 | O=C(CN1CCCCS1(=O)=O)NC1CC2(C1)CC(c1nc3cc(Cl)ccc3s1)C2 (stereo not drawn) [Example 35, N-[6-(5-chloro-1,3-benzothiazol-2-yl)spiro[3.3]heptan-2-yl]-2-(1,1-dioxothiazinan-2-yl)acetamide] | 3.18 µM | 2.98 µM | > 10 µM | – | –
15 | O=C(NC1CC2(C1)CC(c1nc3cc(Cl)ccc3s1)C2)C1CCS(=O)(=O)N1 (stereo not drawn) [Example 34, N-[6-(5-chloro-1,3-benzothiazol-2-yl)spiro[3.3]heptan-2-yl]-1,1-dioxo-1,2-thiazolidine-3-carboxamide] | 7.11 µM | 5.67 µM | > 10 µM | – | –
16 | O=C(NC1CC2(C1)CC(c1nc3cc(Cl)ccc3s1)C2)c1ccnc(N2CCCC2)c1 (stereo not drawn) [Example 50, N-[6-(5-chloro-1,3-benzothiazol-2-yl)spiro[3.3]heptan-2-yl]-2-pyrrolidin-1-yl-pyridine-4-carboxamide] | 9.95 µM | 9.63 µM | > 10 µM | – | –
17 | O=C(CC1CCCS(=O)(=O)C1)NC1CC2(C1)CC(c1nc3cc(Cl)ccc3s1)C2 (stereo not drawn) [Example 30, N-[6-(5-chloro-1,3-benzothiazol-2-yl)spiro[3.3]heptan-2-yl]-2-(1,1-dioxothian-3-yl)acetamide] | 3.47 µM | 3.47 µM | > 10 µM | – | –
18 | CS(=N)(=O)c1cc(C(=O)NC2CC3(C2)CC(c2nc4cc(Cl)ccc4s2)C3)ccn1 (stereo not drawn) [Example 40, N-[6-(5-chloro-1,3-benzothiazol-2-yl)spiro[3.3]heptan-2-yl]-2-(methylsulfonimidoyl)pyridine-4-carboxamide] | 2.53 µM | 2.41 µM | > 10 µM | – | –
19 | N#Cc1cc(C(=O)NC2CC3(C2)CC(c2nc4cc(Cl)ccc4s2)C3)ccn1 (stereo not drawn) [Example 5, N-[6-(5-chloro-1,3-benzothiazol-2-yl)spiro[3.3]heptan-2-yl]-2-cyano-pyridine-4-carboxamide] | 3.47 µM | 2.92 µM | > 10 µM | – | –
20 | NC(=O)c1cc(C(=O)NC2CC3(C2)CC(c2nc4cc5c(cc4s2)OCO5)C3)ccn1 (stereo not drawn) [Example 12, N4-[6-([1,3]dioxolo[4,5-f][1,3]benzothiazol-6-yl)spiro[3.3]heptan-2-yl]pyridine-2,4-dicarboxamide] | 6.58 µM | 6.53 µM | 23.3 µM | – | –
21 | O=C(NC1CC2(C1)CC(c1nc3cc(Cl)ccc3s1)C2)c1ccnc(N2CCCCC2)c1 (stereo not drawn) [Example 51, N-[6-(5-chloro-1,3-benzothiazol-2-yl)spiro[3.3]heptan-2-yl]-2-(1-piperidyl)pyridine-4-carboxamide] | 5.51 µM | 4.35 µM | > 10 µM | – | –
22 | [H][C@]1(NC(=O)c2cc(C(N)=O)ncn2)C[C@@]2(C1)C[C@]([H])(c1nc3cc(Cl)ccc3s1)C2 (single isomer, unassigned) [Example 56-a, (Sa)-N6-[6-(5-chloro-1,3-benzothiazol-2-yl)spiro[3.3]heptan-2-yl]pyrimidine-4,6-dicarboxamide] | 3.29 µM | 2.47 µM | > 10 µM | – | –
23 | O=C(NC1CC2(C1)CC(c1nc3ccc(Cl)cc3s1)C2)C1CCS(=O)(=O)C1 (stereo not drawn) [Example 27, N-[6-(6-chloro-1,3-benzothiazol-2-yl)spiro[3.3]heptan-2-yl]-1,1-dioxo-thiolane-3-carboxamide] | 1.15 µM | 0.56 µM | > 100 µM | – | –
